Experimental data: ChEMBL document CHEMBL4184279, “Synthesis, antimicrobial activity and acid dissociation constants of methyl 5,5-diphenyl-1-(thiazol-2-yl)pyrrolidine-2-carboxylate derivatives” (Bioorg Med Chem Lett, 2018)
In brackets after ≈: the same amount, converted by molar mass.

How the values were obtained:
Staphylococcus aureus = assay: Antibacterial activity against Staphylococcus aureus ATCC 25925; assay type: functional
Bacillus spizizenii = assay: Antibacterial activity against Bacillus subtilis ATCC 6633; assay type: functional
Candida tropicalis = assay: Antifungal activity against Candida tropicalis ATCC 750 after 48 hrs by microdilution broth method; assay type: functional; settings: ATCC 750, 48 h
[1] = Acid dissociation constant, pKa for OH group of the compound in DMSO-water mixture at 25 +/- 0.1 degC by potentiometric method; assay type: physicochemical
[2] = test system: Mycobacterium tuberculosis; assay: Antimycobacterial activity against Mycobacterium tuberculosis H37Rv after 7 days by REMA; assay type: functional; settings: 168 h
Nakaseomyces glabratus = assay: Antifungal activity against Candida glabrata ATCC 90030 after 48 hrs by microdilution broth method; assay type: functional; settings: ATCC 90030, 48 h
Aeromonas hydrophila = assay: Antibacterial activity against Aeromonas hydrophila ATCC 95080; assay type: functional
Acinetobacter baumannii = assay: Antibacterial activity against Acinetobacter baumannii ATCC 02026; assay type: functional
[3] = Acid dissociation constant, pKa for SH group of the compound in DMSO-water mixture at 25 +/- 0.1 degC by potentiometric method; assay type: physicochemical
Escherichia coli = assay: Antibacterial activity against Escherichia coli; assay type: functional
Candida parapsilosis = assay: Antifungal activity against Candida parapsilosis ATCC 22019 after 48 hrs by microdilution broth method; assay type: functional; settings: Lodderomyces parapsilosis, ATCC 22019, 48 h
[4] = Acid dissociation constant, pKa for NH group of the compound in DMSO-water mixture at 25 +/- 0.1 degC by potentiometric method; assay type: physicochemical

Row | Structure (SMILES) | MIC (Staphylococcus aureus) [µg/mL] | MIC (Bacillus spizizenii) [µg/mL] | MIC (Candida tropicalis) [µg/mL] | pKa [1] | MIC [2] [µg/mL] | MIC (Nakaseomyces glabratus) [µg/mL] | MIC (Aeromonas hydrophila) [µg/mL] | MIC (Acinetobacter baumannii) [µg/mL] | pKa [3] | MIC (Escherichia coli) [µg/mL] | MIC (Candida parapsilosis) [µg/mL] | pKa [4]
1 | COC(=O)[C@H]1[C@@H](C(=O)OC)C(c2ccccc2)(c2ccccc2)N(c2nc(-c3ccccc3)c(C(=O)c3ccc(F)cc3)s2)[C@H]1C(=O)OC | 125 (≈ 184 µM) | 62.5 (≈ 92.1 µM) | 62.5 (≈ 92.1 µM) | 10.2 | 15.6 (≈ 23 µM) | 31.2 (≈ 46 µM) | 62.5 (≈ 92.1 µM) | 62.5 (≈ 92.1 µM) | 6.37 | 125 (≈ 184 µM) | 62.5 (≈ 92.1 µM) | 2.73
2 | COC(=O)[C@H]1C[C@@H](C(=O)OC)C(c2ccccc2)(c2ccccc2)N1c1nc(-c2ccccc2)c(C(=O)c2ccc(C#N)cc2)s1 | 125 (≈ 199 µM) | 250 (≈ 398 µM) | 62.5 (≈ 99.6 µM) | 8.67 | 15.6 (≈ 24.9 µM) | 31.2 (≈ 49.8 µM) | 250 (≈ 398 µM) | 250 (≈ 398 µM) | 5.61 | 125 (≈ 199 µM) | 62.5 (≈ 99.6 µM) | 3.78
3 | COC(=O)[C@H]1[C@@H](C(=O)OC)C(c2ccccc2)(c2ccccc2)N(c2nc(-c3ccccc3)c(C(=O)c3ccc(Br)cc3)s2)[C@H]1C(=O)OC | 125 (≈ 169 µM) | 62.5 (≈ 84.5 µM) | 125 (≈ 169 µM) | 9.23 | 3.91 (≈ 5.29 µM) | 31.2 (≈ 42.3 µM) | 62.5 (≈ 84.5 µM) | 62.5 (≈ 84.5 µM) | 6.02 | 125 (≈ 169 µM) | 125 (≈ 169 µM) | 3.27
4 | COC(=O)[C@H]1C[C@@H](S(=O)(=O)c2ccccc2)C(c2ccccc2)(c2ccccc2)N1c1nc(-c2ccccc2)c(C(=O)c2ccc(C#N)cc2)s1 | 125 (≈ 176 µM) | 62.5 (≈ 88 µM) | 62.5 (≈ 88 µM) | 8.83 | 3.91 (≈ 5.51 µM) | 31.2 (≈ 44 µM) | 62.5 (≈ 88 µM) | 62.5 (≈ 88 µM) | 5.78 | 125 (≈ 176 µM) | 62.5 (≈ 88 µM) | 3.56
5 | COC(=O)[C@H]1C[C@@H](C(=O)OC)C(c2ccccc2)(c2ccccc2)N1c1nc(-c2ccccc2)c(C(=O)c2ccccc2)s1 | 125 (≈ 207 µM) | 125 (≈ 207 µM) | 62.5 (≈ 104 µM) | 9.67 | 15.6 (≈ 25.9 µM) | 31.2 (≈ 51.8 µM) | 250 (≈ 415 µM) | 250 (≈ 415 µM) | 6.58 | 125 (≈ 207 µM) | 62.5 (≈ 104 µM) | 2.99
6 | COC(=O)[C@H]1[C@@H](C(=O)OC)C(c2ccccc2)(c2ccccc2)N(c2nc(-c3ccccc3)c(C(=O)c3ccc(OC)cc3)s2)[C@H]1C(=O)OC | 125 (≈ 181 µM) | 125 (≈ 181 µM) | 62.5 (≈ 90.5 µM) | 10.2 | 15.6 (≈ 22.6 µM) | 31.2 (≈ 45.2 µM) | 62.5 (≈ 90.5 µM) | 62.5 (≈ 90.5 µM) | 6.77 | 250 (≈ 362 µM) | 62.5 (≈ 90.5 µM) | 2.83
7 | CC[C@@H](CO)NCCN[C@@H](CC)CO [ETHAMBUTOL] |  |  |  |  | 1.96 (≈ 9.59 µM) |  |  |  |  |  |  | 
8 | COC(=O)[C@H]1C[C@@H](S(=O)(=O)c2ccccc2)C(c2ccccc2)(c2ccccc2)N1c1nc(-c2ccccc2)c(C(=O)c2ccccc2)s1 | 125 (≈ 183 µM) | 62.5 (≈ 91.3 µM) | 31.2 (≈ 45.6 µM) | 8.64 | 3.91 (≈ 5.71 µM) | 31.2 (≈ 45.6 µM) | 62.5 (≈ 91.3 µM) | 31.2 (≈ 45.6 µM) | 5.9 | 125 (≈ 183 µM) | 62.5 (≈ 91.3 µM) | 3.26
9 | COC(=O)[C@H]1C[C@@H](S(=O)(=O)c2ccccc2)C(c2ccccc2)(c2ccccc2)N1c1nc(-c2ccccc2)c(C(=O)c2ccc(OC)cc2)s1 | 125 (≈ 175 µM) | 62.5 (≈ 87.4 µM) | 62.5 (≈ 87.4 µM) | 9.28 | 3.91 (≈ 5.47 µM) | 31.2 (≈ 43.7 µM) | 62.5 (≈ 87.4 µM) | 62.5 (≈ 87.4 µM) | 6.01 | 125 (≈ 175 µM) | 62.5 (≈ 87.4 µM) | 3.35
10 | COC(=O)[C@H]1C[C@@H](S(=O)(=O)c2ccccc2)C(c2ccccc2)(c2ccccc2)N1c1nc(-c2ccccc2)c(C(=O)c2ccc(Br)cc2)s1 | 125 (≈ 164 µM) | 62.5 (≈ 81.8 µM) | 62.5 (≈ 81.8 µM) | 9.53 | 0.98 (≈ 1.28 µM) | 31.2 (≈ 40.9 µM) | 62.5 (≈ 81.8 µM) | 31.2 (≈ 40.9 µM) | 5.99 | 125 (≈ 164 µM) | 62.5 (≈ 81.8 µM) | 2.97
